Assay results reported in US20240074442A1, “UVARIA GRANDIFLORA EXTRACT AS A BOTANICAL FUNGICIDE, PREPARATION METHOD THEREFOR, AND APPLICATION THEREOF” (HAINAN UNIVERSITY, priority 2021, published 2024).
In brackets after ≈: the same amount, converted by molar mass. Structures can show the parent of a compound that is named as a salt. Where two headings read alike, the source gives them in different places.

How the values were obtained:
Gilbertella persicaria = assay: Mycelial growth rate method, in vitro fungicidal activity; format: cell-based; conditions: G.P
Fusarium graminearum = assay: microbe, parasite or virus in culture; format: cell-based; conditions: for inhibition at 50 µg/mL: read-out: Inhibition rate (%)
Rhizoctonia solani = assay: Mycelial growth rate method, in vitro fungicidal activity; format: cell-based; conditions: R.S
Pyricularia oryzae = assay: microbe, parasite or virus in culture; format: cell-based; conditions: for inhibition at 50 µg/mL: read-out: Inhibition rate (%)
[1] = tested on: Neoscytalidium dimidiatum; assay: Mycelial growth rate method, in vitro fungicidal activity; format: cell-based; conditions: N.D, 50 μg mL^−1; for inhibition at 50 µg/mL: Neoscytalidium dimidiatum
Colletotrichum musae = assay: as above; format: cell-based; conditions: C.M
[2] = tested on: Colletotrichum gloeosporioiles; assay: as above; format: cell-based; conditions: C.G, 50 μg mL^−1; for inhibition at 50 µg/mL: Colletotrichum
Colletotrichum siamense = assay: as above; format: cell-based; conditions: C.S, 50 μg mL^−1; for inhibition at 50 µg/mL: Colletotrichum siamense
Colletotrichum capsici = assay: as above; format: cell-based; conditions: C.C, 50 μg mL^−1; for inhibition at 50 µg/mL: Colletotrichum truncatum
Phytophthora capsici [3] = assay: as above; format: cell-based; conditions: P.C
Phytophthora capsici [4] = assay: Potted fungicidal activity test, protective effect; conditions: in vivo
cowpea powdery mildew = assay: Potted fungicidal activity test; conditions: in vivo
potato late blight = format: in vivo; conditions: potted
Cucumber downy mildew = assay: Potted fungicidal activity test; format: in vivo, Pseudoperonospora cubensis; conditions: for Control effect (%): potted, cucumber downy mildew
[5] = Gilbertella persicaria, 50 μg mL^−1
[6] = Gilbertella persicaria, read-out: EC50
[7] = Rhizoctonia solani, 50 μg mL^−1
[8] = Rhizoctonia solani, read-out: EC50
[9] = Colletotrichum musae, 50 μg mL^−1
[10] = Colletotrichum musae, read-out: EC50
[11] = Phytophthora capsici, 50 μg mL^−1
[12] = Phytophthora capsici, read-out: EC50

`CO/C=C(/C(=O)OC)c1ccccc1Oc1cc(Oc2ccccc2C#N)ncn1` [Azoxystrobin] was tested, and the EC50 (Gilbertella persicaria) was 39.09 ± 0.05 µg/mL (≈ 96.9 µM), the “Inhibition rate (%)” value (Gilbertella persicaria; 50 μg mL^−1) was 57.2% and the EC50 (Fusarium graminearum; F.G) was 5.27 ± 0.21 µg/mL (≈ 13.1 µM). The “Inhibition rate (%)” value (Fusarium graminearum; F.G, 50 μg mL^−1) was 65.7%, the EC50 (Rhizoctonia solani) was under 0.06 ± 0.12 µg/mL and the “Inhibition rate (%)” value (Rhizoctonia solani; 50 μg mL^−1) was 73.1%. The EC50 (Pyricularia oryzae; P.O) was 17.89 ± 0.14 µg/mL (≈ 44.3 µM), the “Inhibition rate (%)” value (Pyricularia oryzae; P.O, 50 μg mL^−1) was 57.8% and the “Inhibition rate (%)” value [1] was 51.2%. For the same compound, the EC50 (Colletotrichum musae) was 52.51 ± 0.42 µg/mL (≈ 130 µM), the “Inhibition rate (%)” value (Colletotrichum musae; 50 μg mL^−1) was 51.2% and the “Inhibition rate (%)” value [2] was 52.5%. The “Inhibition rate (%)” value (Colletotrichum siamense) was 60.9%, the “Inhibition rate (%)” value (Colletotrichum capsici) was 41.27% and the EC50 (Phytophthora capsici [3]) was 18.81 ± 0.31 µg/mL (≈ 46.6 µM). For the same compound, the “Inhibition rate (%)” value (Phytophthora capsici [3]; 50 μg mL^−1) was 69.9%.

For `COc1ccc2cc3[n+](cc2c1OC)CCc1cc2c(cc1-3)OCO2` [Berberine hydrochloride], the “Control effect (%)” value (Phytophthora capsici [4]) was 80.0% and the “Disease index (±SD)” value (Phytophthora capsici [4]) was 16.0 ± 2.0.

With `COc1ccc(C(=CC(=O)N2CCOCC2)c2ccc(Cl)cc2)cc1OC` [Dimethomorph] the “Control effect (%)” value (Phytophthora capsici [4]) was 100.0% and the “Disease index (±SD)” value (Phytophthora capsici [4]) was 0.0 ± 0.0.

`COc1ccc2ccc(=O)oc2c1CC=C(C)C` [Osthole] showed an inhibition at 50 µg/mL (Gilbertella persicaria; [5]) of 94.3%, an EC50 (Gilbertella persicaria; [6]) of 11.4 ± 0.51 µg/mL (≈ 46.7 µM) and an EC50 (Fusarium graminearum; Fusarium graminearum) of 21.4 ± 0.61 µg/mL (≈ 87.7 µM). The inhibition at 50 µg/mL (Fusarium graminearum; Fusarium graminearum) was 65.1%, the inhibition at 50 µg/mL (Rhizoctonia solani; [7]) was 75.8% and the EC50 (Rhizoctonia solani; [8]) was 16 ± 1.39 µg/mL (≈ 65.6 µM). It also gave an EC50 (Pyricularia oryzae; Pyricularia oryzae) of 11.5 ± 0.42 µg/mL (≈ 47.2 µM), an inhibition at 50 µg/mL (Pyricularia oryzae; Pyricularia oryzae) of 89.1% and an inhibition at 50 µg/mL [1] of 68.2%. For the same compound, the inhibition at 50 µg/mL (Colletotrichum musae; [9]) was 93.3%, the EC50 (Colletotrichum musae; [10]) was 9.18 ± 0.33 µg/mL (≈ 37.6 µM) and the inhibition at 50 µg/mL [2] was 56.9%. The inhibition at 50 µg/mL (Colletotrichum siamense) was 37.7%, the inhibition at 50 µg/mL (Colletotrichum capsici) was 4.8% and the inhibition at 50 µg/mL (Phytophthora capsici [3]; [11]) was 55.7%. For the same compound, the EC50 (Phytophthora capsici [3]; [12]) was 52.59 ± 0.27 µg/mL (≈ 215 µM).

With `CCCC1COC(Cn2cncn2)(c2ccc(Cl)cc2Cl)O1` (stereo not drawn) [Propiconazole] the “Control effect (%)” value (cowpea powdery mildew) was 100% and the “Disease index (±SD)” value (cowpea powdery mildew) was 0 ± 0.0.

In the case of `O=C(OC[C@]1(O)C(=O)C=C[C@H](OC(=O)c2ccccc2)[C@H]1O)c1ccccc1` [zeylenone], the inhibition at 50 µg/mL (Gilbertella persicaria; [5]) is reported as 77.6%, the EC50 (Gilbertella persicaria; [6]) is reported as 17.3 ± 2.29 µg/mL (≈ 45.2 µM) and the EC50 (Fusarium graminearum; Fusarium graminearum) is reported as 22.94 ± 0.11 µg/mL (≈ 60 µM). For the same compound, the inhibition at 50 µg/mL (Fusarium graminearum; Fusarium graminearum) was 52.5%, the inhibition at 50 µg/mL (Rhizoctonia solani; [7]) was 76.8% and the EC50 (Rhizoctonia solani; [8]) was 4.91 ± 0.12 µg/mL (≈ 12.8 µM). It also gave an EC50 (Pyricularia oryzae; Pyricularia oryzae) of 21.38 ± 0.14 µg/mL (≈ 55.9 µM), an inhibition at 50 µg/mL (Pyricularia oryzae; Pyricularia oryzae) of 66.2% and an inhibition at 50 µg/mL [1] of 43.8%. For the same compound, the inhibition at 50 µg/mL (Colletotrichum musae; [9]) was 84.3%, the EC50 (Colletotrichum musae; [10]) was 3.37 µg/mL (≈ 8.81 µM) and the “Control effect (%)” value (potato late blight; 6.25 μg mL^−1) was 0 ± 0.0%. For the same compound, the “Control effect (%)” value (potato late blight; 12.5 μg mL^−1) was 0 ± 0.0%, the “Control effect (%)” value (potato late blight; 25 μg mL^−1) was 0 ± 0.0% and the “Control effect (%)” value (potato late blight; 50 μg mL^−1) was 20 ± 2.0%. For the same compound, the “control effect on cucumber downy mildew compared with Cyazofamid” value (Cucumber downy mildew; potted fungicidal activity test, in words) was “equivalent to that of the chemical fungicide Cyazofamid”, the “Control effect (%)” value (Cucumber downy mildew; 6.25 μg mL^−1) was 25 ± 1.0% and the “Control effect (%)” value (Cucumber downy mildew; 12.5 μg mL^−1) was 70 ± 3.0%. The “Control effect (%)” value (Cucumber downy mildew; 25 μg mL^−1) was 88 ± 1.7%, the “Control effect (%)” value (Cucumber downy mildew; 50 μg mL^−1) was 99 ± 2.0% and the inhibition at 50 µg/mL [2] was 45%. For the same compound, the inhibition at 50 µg/mL (Colletotrichum siamense) was 43.5%, the inhibition at 50 µg/mL (Colletotrichum capsici) was 34.4% and the inhibition at 50 µg/mL (Phytophthora capsici [3]; [11]) was 88.1%. The EC50 (Phytophthora capsici [3]; [12]) was 6.98 µg/mL (≈ 18.3 µM).
